Source: patent US20240018125A1, “CYCLIC ISOTHIOUREA DERIVATIVES AS CXCR4 MODULATORS” (ERMIUM THERAPEUTICS, priority 2020, published 2024)
Where a name gives a salt, the structure may show the parent alone.

Test system: peripheral blood mononuclear cells (PBMCs) from healthy donors
Test: IFN production by R848-activated PBMCs, quantified with twINNE luciferase reporter cell line
Format: cell-based, human
Conditions: Homo sapiens, PBMC; read-out: IC50 of anti-inflammatory activity (IFN production by activated PBMCs)
How it was run: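 Healthy-donor PBMCs (4.10^6/mL, RPMI/10% FBS) were pre-treated with compound, then stimulated with R848 at 5 μg/mL for 24 h. Supernatants were put on twINNE cells, which carry luciferase under five ISREs, for 24 h, and Bright-Glo luminescence was read. IC50 values came from variable-slope dose-response fits.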

SMILES | IC50
CC1(c2ccccc2)CN=C(SCC2=CSC3=NCc4ccccc4CN23)N1 (centres unmarked) [Example 30, 3-(((5-methyl-5-phenyl-4,5-dihydro-1H-imidazol-2-yl)thio)methyl)-5,10-dihydrobenzo[e]thiazolo[3,2-a][1,3]diazepine dihydrochloride] | ≤ 10 µM
CN1CCCC1CCCSC1=NCc2cc(Cl)ccc2N1 (centres unmarked) [Example 174, 6-chloro-2-((3-(1-methylpyrrolidin-2-yl)propyl)thio)-1,4-dihydroquinazoline dihydrochloride] | ≤ 10 µM
Clc1ccc(C2CN3C(CSC4=NCc5ccccc5N4)=CSC3=N2)cc1 (centres unmarked) [Example 14, 6-(4-chlorophenyl)-3-(((3,4-dihydroquinazolin-2-yl)thio)methyl)-5,6-dihydroimidazo[2,1-b]thiazole dihydrochloride] | ≤ 10 µM
Clc1ccc2c(c1)CN=C(SCCCCN1CCCCC1)N2 [Example 164, 6-chloro-2-((4-(piperidin-1-yl)butyl)thio)-1,4-dihydroquinazoline dihydrochloride] | ≤ 10 µM
c1ccc2c(c1)CN=C(SCCN1CCCC1)NC2 [Example 186, 3-((2-(pyrrolidin-1-yl)ethyl)thio)-2,5-dihydro-1H-benzo[e][1,3]diazepine dihydrochloride] | > 32 µM

Test system: not given
Test: not given
Conditions: not given

melting point | SMILES
174 to 180 °C | C1=C(CSC2=NCC(C3CCCCC3)N2)N2Cc3ccccc3CN=C2S1 (centres unmarked) (as salt: hydrochloride) [Example 26, 3-(((4-cyclohexyl-4,5-dihydro-1H-imidazol-2-yl)thio)methyl)-5,10-dihydrobenzo[e]thiazolo[3,2-a][1,3]diazepine dihydrochloride]
> 250 °C | CC1(C)N=C(SCC2=CSC3=NCc4ccccc4CN23)Nc2ccccc21 (as salt: hydrochloride) [Example 21, 3-(((4,4-dimethyl-1,4-dihydroquinazolin-2-yl)thio)methyl)-5,10-dihydrobenzo[e]thiazolo[3,2-a][1,3]diazepine dihydrochloride]
> 250 °C | Fc1ccc2c(c1)N=C1SC=C(CSC3=NCc4ccccc4N3)N1C2 (as salt: hydrochloride) [Example 82, 3-(((1,4-dihydroquinazolin-2-yl)thio)methyl)-8-fluoro-5H-thiazolo[2,3-b]quinazoline dihydrochloride]
127 to 134 °C | CC1(C)CN2C(CSC3=NCc4ccccc4CN3)=CSC2=N1 (as salt: hydrochloride) [Example 7, 3-(((2,5-dihydro-1H-benzo[e][1,3]diazepin-3-yl)thio)methyl)-6,6-dimethyl-5,6-dihydroimidazo[2,1-b]thiazole dihydrochloride]
203 to 210 °C | C1=C(CSC2=Nc3ccccc3C(c3ccccc3)N2)N2Cc3ccccc3CN=C2S1 (centres unmarked) (as salt: hydrochloride) [Example 27, 3-(((4-phenyl-3,4-dihydroquinazolin-2-yl)thio)methyl)-5,10-dihydrobenzo[e]thiazolo[3,2-a][1,3]diazepine dihydrochloride]
185 to 190 °C | C1=C(CSC2=NCc3ccccc3N2)N2CC(c3ccccc3)N=C2S1 (centres unmarked) (as salt: hydrochloride) [Example 120, 3-(((1,4-dihydroquinazolin-2-yl)thio)methyl)-6-phenyl-5,6-dihydroimidazo[2,1-b]thiazole dihydrochloride]
227 to 234 °C | CCCCC1CN=C(SCC2=CSC3=Nc4ccccc4CN23)N1 (centres unmarked) (as salt: hydrochloride) [Example 29, 3-(((5-butyl-4,5-dihydro-1H-imidazol-2-yl)thio)methyl)-5H-thiazolo[2,3-b]quinazoline dihydrochloride]
215 to 220 °C | C1=C(CSC2=NCc3ccccc3N2)N2CC(Cc3cccs3)N=C2S1 (centres unmarked) (as salt: hydrochloride) [Example 63, 3-(((3,4-dihydroquinazolin-2-yl)thio)methyl)-6-(thiophen-2-ylmethyl)-5,6-dihydroimidazo[2,1-b]thiazole dihydrochloride]
50 to 58 °C | CCCCN1C(SCC2=CSC3=NC(Cc4ccccc4)CN23)=NCc2ccccc21 (centres unmarked) (as salt: hydrochloride) [Example 99, 6-benzyl-3-(((1-butyl-1,4-dihydroquinazolin-2-yl)thio)methyl)-5,6-dihydroimidazo[2,1-b]thiazole dihydrochloride]
147 to 151 °C | Fc1cccc2c1CN=C(SCC1=CSC3=NC(Cc4ccccc4)CN13)N2 (centres unmarked) (as salt: hydrochloride) [Example 117, 6-benzyl-3-(((5-fluoro-1,4-dihydroquinazolin-2-yl)thio)methyl)-5,6-dihydroimidazo[2,1-b]thiazole dihydrochloride]

The remaining lines, values behind:

SMILES | melting point
OC1(CSC2=NCc3ccccc3N2)CSC2=N[C@H](c3ccccc3)[C@@H](c3ccccc3)N21 (relative stereo) (as salt: hydrochloride) [Example 17, trans-3-(((3,4-dihydroquinazolin-2-yl)thio)methyl)-5,6-diphenyl-2,3,5,6-tetrahydroimidazo[2,1-b]thiazol-3-ol dihydrochloride] | 195 to 200 °C
Fc1ccc2c(c1)CN1C(CSC3=NCc4ccccc4N3)=CSC1=N2 (as salt: hydrochloride) [Example 84, 3-(((1,4-dihydroquinazolin-2-yl)thio)methyl)-7-fluoro-5H-thiazolo[2,3-b]quinazoline dihydrochloride] | > 250 °C
C1=C(CSC2=NCC(Cc3ccccc3)N2)N2Cc3ccccc3N=C2S1 (centres unmarked) (as salt: hydrochloride) [Example 33, 3-(((5-benzyl-4,5-dihydro-1H-imidazol-2-yl)thio)methyl)-5H-thiazolo[2,3-b]quinazoline dihydrochloride] | > 250 °C
CC1(C)c2ccccc2N=C2SC=C(CSC3=NCc4ccccc4N3)N21 (as salt: hydrochloride) [Example 95, 3-(((1,4-dihydroquinazolin-2-yl)thio)methyl)-5,5-dimethyl-5H-thiazolo[2,3-b]quinazoline dihydrochloride] | 180 to 185 °C
C1=C(CSC2=NCc3ccccc3N2)N2C[C@H](Cc3c[nH]c4ccccc34)N=C2S1 (as salt: hydrochloride) [Example 109, (S)-6-((1H-indol-3-yl)methyl)-3-(((1,4-dihydroquinazolin-2-yl)thio)methyl)-5,6-dihydroimidazo[2,1-b]thiazole dihydrochloride] | 180 to 190 °C
COc1ccc(CC2(C)CN3C(CSC4=NCc5ccccc5N4)=CSC3=N2)cc1 (centres unmarked) (as salt: hydrochloride) [Example 46, 3-(((3,4-dihydroquinazolin-2-yl)thio)methyl)-6-(4-methoxybenzyl)-6-methyl-5,6-dihydroimidazo[2,1-b]thiazole dihydrochloride] | 156 to 168 °C
CCCCN1Cc2ccccc2N=C1SCC1=CSC2=NC(Cc3ccccc3)CN12 (centres unmarked) (as salt: hydrochloride) [Example 93, 6-benzyl-3-(((3-butyl-3,4-dihydroquinazolin-2-yl)thio)methyl)-5,6-dihydroimidazo[2,1-b]thiazole dihydrochloride] | 40 to 44 °C
CC1(c2ccccc2)CN=C(SCC2=CSC3=NCc4ccccc4CN23)N1 (centres unmarked) (as salt: hydrochloride) [Example 30, 3-(((5-methyl-5-phenyl-4,5-dihydro-1H-imidazol-2-yl)thio)methyl)-5,10-dihydrobenzo[e]thiazolo[3,2-a][1,3]diazepine dihydrochloride] | 195 to 200 °C
